# According to patent US10828305B2 (SHANGHAI PHARMACEUTICALS HOLDING CO., LTD., priority 2016, dated 2020):
# Key:
# [1] = molecular target: ErbB2 kinase (Homo sapiens, UniProt P04626); assay: Enzymatic experiment on ErbB2 (HTRF kinEASE-TK); type: biochemical; conditions: ATP 4 μM; read-out: Kinase IC50 (nM) in vitro ErbB2
# Method in brief: (§1)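 HTRF kinEASE-TK with biotinylated TK substrate in HEPES pH 7.0 buffer containing MnCl2, MgCl2 and DTT; ErbB2 at 0.06 ng/μl with 4 μM ATP, EGFR at 0.06 units/μl with 1.65 μM ATP, 30 min at room temperature after 5 min enzyme/substrate–compound preincubation. Ten-point 3-fold dilutions; Eu antibody/SA-XL665 detection, 665/620 ratio.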
# [2] = molecular target: EGFR kinase (Homo sapiens, UniProt P00533); assay: Enzymatic experiment on EGFR (HTRF kinEASE-TK); type: biochemical; conditions: ATP 1.65 μM; read-out: Kinase IC50 (nM) in vitro EGFR
# Method in brief: as §1
# [3] = tested on: N87; assay: Proliferation inhibition assay in vitro, N87 (CellTiter-Glo); type: cell-based; conditions: Homo sapiens; 72 hours; read-out: IC50(nM) cell N87
# Method in brief: (§2)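 Cells were seeded at 8.8×10^4 cells/mL for BT-474 or 6.6×10^4 cells/mL for N87 and grown overnight. Compound was added at 9 concentrations in duplicate for 72 h at 37 °C, 5% CO2. Viability was measured by CellTiter-Glo.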
# [4] = tested on: BT-474; assay: Proliferation inhibition assay in vitro, BT-474 (CellTiter-Glo); type: cell-based; conditions: Homo sapiens, 72 hours, read-out: IC50(nM) cell BT-474
# Method in brief: as §2
# Chain of ErbB2 kinase (P04626 23-1255): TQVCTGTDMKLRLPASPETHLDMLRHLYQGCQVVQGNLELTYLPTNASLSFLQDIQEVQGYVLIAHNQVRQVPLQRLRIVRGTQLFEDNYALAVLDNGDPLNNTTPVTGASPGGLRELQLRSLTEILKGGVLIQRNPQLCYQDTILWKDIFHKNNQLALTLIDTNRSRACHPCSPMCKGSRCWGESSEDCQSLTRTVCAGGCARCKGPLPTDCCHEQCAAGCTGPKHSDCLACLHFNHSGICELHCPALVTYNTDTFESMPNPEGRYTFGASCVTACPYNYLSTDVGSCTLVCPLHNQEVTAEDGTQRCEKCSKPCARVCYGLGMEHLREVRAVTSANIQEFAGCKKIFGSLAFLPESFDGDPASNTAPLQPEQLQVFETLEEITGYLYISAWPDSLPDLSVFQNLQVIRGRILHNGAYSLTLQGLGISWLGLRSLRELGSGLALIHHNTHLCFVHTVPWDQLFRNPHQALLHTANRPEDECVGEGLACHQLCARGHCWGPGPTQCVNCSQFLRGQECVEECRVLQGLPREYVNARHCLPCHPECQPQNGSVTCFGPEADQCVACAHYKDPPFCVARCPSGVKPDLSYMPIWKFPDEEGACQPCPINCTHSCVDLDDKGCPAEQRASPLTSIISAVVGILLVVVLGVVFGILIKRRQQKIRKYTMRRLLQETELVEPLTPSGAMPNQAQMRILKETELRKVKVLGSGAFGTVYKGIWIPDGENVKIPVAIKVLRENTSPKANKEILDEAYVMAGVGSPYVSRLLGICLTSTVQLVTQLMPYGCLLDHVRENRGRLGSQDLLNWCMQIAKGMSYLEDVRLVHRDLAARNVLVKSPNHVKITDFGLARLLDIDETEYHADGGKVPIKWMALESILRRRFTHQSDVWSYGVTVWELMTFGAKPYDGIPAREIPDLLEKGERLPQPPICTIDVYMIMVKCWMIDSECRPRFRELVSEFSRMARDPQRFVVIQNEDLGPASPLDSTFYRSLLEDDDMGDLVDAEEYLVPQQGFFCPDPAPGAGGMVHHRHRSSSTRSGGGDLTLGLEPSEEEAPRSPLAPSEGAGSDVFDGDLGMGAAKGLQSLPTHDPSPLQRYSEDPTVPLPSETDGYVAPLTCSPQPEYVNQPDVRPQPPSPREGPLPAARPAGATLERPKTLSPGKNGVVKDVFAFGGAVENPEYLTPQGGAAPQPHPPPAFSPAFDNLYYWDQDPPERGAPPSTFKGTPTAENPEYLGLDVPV
# Chain of EGFR kinase (P00533 25-1210): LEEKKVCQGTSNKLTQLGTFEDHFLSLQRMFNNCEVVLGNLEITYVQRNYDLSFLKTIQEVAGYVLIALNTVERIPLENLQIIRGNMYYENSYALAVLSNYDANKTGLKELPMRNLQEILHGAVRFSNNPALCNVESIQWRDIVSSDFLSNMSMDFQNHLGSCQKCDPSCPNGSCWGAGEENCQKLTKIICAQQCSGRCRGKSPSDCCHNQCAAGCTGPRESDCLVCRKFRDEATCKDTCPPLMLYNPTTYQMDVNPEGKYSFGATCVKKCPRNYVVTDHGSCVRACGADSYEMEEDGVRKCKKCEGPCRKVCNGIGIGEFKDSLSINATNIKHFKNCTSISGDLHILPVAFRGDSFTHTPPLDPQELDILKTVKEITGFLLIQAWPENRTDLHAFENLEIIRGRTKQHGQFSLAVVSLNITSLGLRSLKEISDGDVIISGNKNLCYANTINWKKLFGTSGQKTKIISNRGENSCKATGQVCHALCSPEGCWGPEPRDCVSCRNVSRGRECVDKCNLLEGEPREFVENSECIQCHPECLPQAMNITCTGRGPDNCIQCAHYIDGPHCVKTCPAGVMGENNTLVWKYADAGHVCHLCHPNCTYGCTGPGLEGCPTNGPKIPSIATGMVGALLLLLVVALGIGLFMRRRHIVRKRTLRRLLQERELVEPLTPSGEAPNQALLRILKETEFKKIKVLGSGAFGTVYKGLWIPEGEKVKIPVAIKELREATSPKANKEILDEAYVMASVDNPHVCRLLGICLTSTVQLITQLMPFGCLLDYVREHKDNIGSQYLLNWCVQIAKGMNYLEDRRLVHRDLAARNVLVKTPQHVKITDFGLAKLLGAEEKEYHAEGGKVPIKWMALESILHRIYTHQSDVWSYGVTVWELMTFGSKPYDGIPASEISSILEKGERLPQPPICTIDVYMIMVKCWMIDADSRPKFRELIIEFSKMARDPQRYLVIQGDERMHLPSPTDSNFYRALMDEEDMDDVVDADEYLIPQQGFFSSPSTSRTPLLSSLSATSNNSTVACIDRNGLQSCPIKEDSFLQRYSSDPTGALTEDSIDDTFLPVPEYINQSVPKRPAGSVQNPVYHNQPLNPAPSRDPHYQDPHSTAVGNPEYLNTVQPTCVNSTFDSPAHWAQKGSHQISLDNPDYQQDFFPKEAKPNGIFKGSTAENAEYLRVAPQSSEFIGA
Structure (SMILES),IC50 [1],IC50 [2],IC50 [4],IC50 [3]
"C=C(F)C(=O)N1CCC(Oc2cc3c(Nc4ccc(Oc5cc6nncn6cn5)c(C)c4)ncnc3cc2OC)CC1 [Embodiment 42, 1-(4-((4-((4-([1,2,4]triazolo[4,3-c]pyrimidin-7-yloxy)-3-methylphenyl)amino)-7-methoxyquinazolin-6-yl)oxy)piperidin-1-yl)-2-fluoroprop-2-en-1-one]",5.2 nM,8.3 nM,36.7 nM,39.2 nM
"Cc1cc(Nc2ncnc3ccc(NC(=O)CC(C)(C)O)cc23)ccc1Oc1cc2nncn2cn1 [Embodiment 17, N-(4-((4-([1,2,4]triazolo[4,3,c]pyrimidin-7-yloxy)-3-methylphenyl)amino)quinoline-6-yl)-3-hydroxy-3-methylbutanamide]",7.9 nM,80.9 nM,304 nM,712 nM
Cc1cc(Nc2ncnc3ccc(NC4=N[C@@H](C)CO4)cc23)ccc1Oc1cc2nncn2cn1 [Embodiment 8],7.8 nM,115 nM,43.4 nM,68.7 nM
"CCC1COC(Nc2ccc3ncnc(Nc4ccc(Oc5cc6nncn6cn5)c(C)c4)c3c2)=N1 (stereo not shown) [Embodiment 129, N^4-(4-([1,2,4]triazolo[4,3-c]pyrimidin-7-yloxy)-3-methylphenyl)-N^6-(4-ethyl-4,5-dihydrooxazol-2-yl)quinazolin-4,6-diamine]",4.4 nM,56.9 nM,189 nM,121 nM
"CCNC(=O)Nc1cccc(-c2ccc3ncnc(Nc4ccc(Oc5cc6nncn6cn5)c(C)c4)c3c2)c1 [Embodiment 50, 1-(3-(4-((4-([1,2,4]triazolo[4,3-c]pyrimidin-7-yloxy)-3-methylphenyl)amino)quinazolin-6-yl)phenyl)-3-ethylurea]",3.6 nM,27.8 nM,104 nM,116 nM
"C=CC(=O)N1CC=C(c2ccc3ncnc(Nc4ccc(Oc5cc6nncn6cn5)c(C)c4)c3c2)CC1 [Embodiment 117, 1-(4-(4-((4-([1,2,4]triazolo[4,3-c]pyrimidin-7-yloxy)-3-methylphenyl)amino)quinazolin-6-yl)-5,6-dihydropyridin-1(2H)-yl)prop-2-en-1-one]",3.6 nM,100 nM,3.1 nM,2.1 nM
"Cc1cc(Nc2ncnc3ccc(NC4=NCC(C)(C)O4)cc23)ccc1Oc1cc2nncn2cn1 [Embodiment 90, N^4-(4-([1,2,4]triazolo[4,3-c]pyrimidin-7-yloxy)-3-methylphenyl)-N^6-(5,5-dimethyl-4,5-dihydrooxazol-2-yl)quinazolin-4,6-diamine]",11.1 nM,494 nM,185 nM,271 nM
"Cc1cc(Nc2ncnc3ccc(NC4=NCC5(CCN(C)CC5)O4)cc23)ccc1Oc1cc2nncn2cn1 [Embodiment 31, N^4-(4-([1,2,4]triazolo[4,3-c]pyrimidin-7-yloxy)-3-methylphenyl)-N^6-(8-methyl-1-oxa-3,8-diazaspiro[4.5]dec-2-en-2-yl)quinazoline-4,6-diamine]",10.1 nM,57.4 nM,187 nM,433 nM
"Cc1cc(Nc2ncnc3ccc(-c4ccc(CN(C)C)o4)cc23)ccc1Oc1cc2nncn2cn1 [Embodiment 59, N-(4-([1,2,4]triazolo[4,3-c]pyrimidin-7-yloxy)-3-methylphenyl)-6-(5-((dimethylamino)methyl)furan-2-yl)-4-aminoquinazoline]",5.7 nM,40.2 nM,281 nM,61.1 nM

# These reach a lower IC50 [1]. Values come first.
IC50 [1],IC50 [2],IC50 [4],Structure (SMILES),IC50 [3]
3.4 nM,14.7 nM,13.6 nM,"C=C(F)C(=O)Nc1cc2c(Nc3ccc(Oc4cc5nncn5cn4)c(C)c3)ncnc2cc1F [Embodiment 125, N-(4-((4-([1,2,4]triazolo[4,3-c]pyrimidin-7-yloxy)-3-methylphenyl)amino)-7-fluoroquinolin-6-yl)-2-fluoroacryamide]",6.8 nM
1.78 nM,1.6 nM,3 nM,"CN1CCC[C@@H]1/C=C/C(=O)Nc1ccc2ncnc(Nc3ccc(Oc4cc5nncn5cn4)c(Cl)c3)c2c1 [Embodiment 98, (R,E)-N-(4-((4-([1,2,4]triazolo[4,3-c]pyrimidin-7-yloxy)-3-chlorophenyl)amino)quinazolin-6-yl)-3-(1-methylpyrrolidin-2-yl)acrylamide]",2.5 nM
2.35 nM,21.6 nM,30.4 nM,"C=CC(=O)Nc1cncc(-c2ccc3ncnc(Nc4ccc(Oc5cc6nncn6cn5)c(C)c4)c3c2)c1 [Embodiment 52, N-(5-(4-((4-([1,2,4]triazolo[4,3-c]pyrimidin-7-yloxy)-3-methylphenyl)amino)quinazolin-6-yl)pyridin-3-yl)acrylamide]",117 nM
3.4 nM,32.3 nM,7.7 nM,"C=C(F)C(=O)Nc1ccc2ncnc(Nc3ccc(Oc4cc5nncn5cn4)c(C)c3)c2c1 [Embodiment 16, N-(4-((4-([1,2,4]triazolo[4,3-c]pyrimidin-7-yloxy)-3-methylphenyl)amino)quinazolin-6-yl)-2-fluoroacrylamide]",5.6 nM
1.31 nM,7.41 nM,5.85 nM,"C=CC(=O)N1CCC=C(c2ccc3ncnc(Nc4ccc(Oc5cc6nncn6cn5)c(C)c4)c3c2)C1 [Embodiment 120, 1-(5-(4-((4-([1,2,4]triazolo[4,3-c]pyrimidin-7-yloxy)-3-methylphenyl)amino)quinazolin-6-yl)-3,6-dihydropyridin-1(2H)-yl)prop-2-en-1-one]",2.68 nM
2.6 nM,31.4 nM,35 nM,"Cc1cc(Nc2ncnc3ccc(NC4=NC5(CCOCC5)CO4)cc23)ccc1Oc1cc2nncn2cn1 [Embodiment 47, N^4-(4-([1,2,4]triazolo[4,3-c]pyrimidin-7-yloxy)-3-methylphenyl)-N^6-(3,8-dioxa-1-azaspiro[4.5]dec-1-en-2-yl)quinazoline-4,6-diamine]",68.4 nM
1.8 nM,3.3 nM,13.2 nM,"CC1(C)COC(Nc2ccc3ncnc(Nc4ccc(Oc5cc6nncn6cn5)c(Cl)c4)c3c2)=N1 [Embodiment 78, N′-[3-chloro-4-([1,2,4]triazolo[4,3-c]pyrimidin-7-yloxy)phenyl)-N^6-(4,4-dimethyl-4,5-dihydrooxazol-2-yl)quinazolin-4,6-diamine]",22.3 nM
1.6 nM,29 nM,27.6 nM,Cc1cc(Nc2ncnc3ccc(-c4cc(CN5CCS(=O)(=O)CC5)co4)cc23)ccc1Oc1cc2nncn2cn1 [Embodiment 64],42.7 nM
1.3 nM,11.7 nM,12.6 nM,"Cc1cc(Nc2ncnc3ccc(-c4cccc(N5CCS(=O)(=O)CC5)c4)cc23)ccc1Oc1cc2nncn2cn1 [Embodiment 116, 4-(3-(4-((4-([1,2,4]triazolo[4,3-c]pyrimidin-7-yloxy)-3-methylphenyl)amino)quinazolin-6-yl)phenyl)thiomorpholin-1,1-dioxide]",18.3 nM
1.85 nM,28.1 nM,33.4 nM,"CCNC(=O)NC/C=C/c1ccc2ncnc(Nc3ccc(Oc4cc5nncn5cn4)c(C)c3)c2c1 [Embodiment 49, (E)-1-(3-(4-((4-([1,2,4]triazolo[4,3-c]pyrimidin-7-yloxy)-3-methylphenyl)amino)quinazolin-6-yl)allyl)-3-ethylurea]",271 nM
